Laboratory results from PMC5967645 (European scientific journal, 2017).

Test system: calpain
Experiment: immunoblot of calcium-induced calpain-mediated spectrin breakdown product
Format: biochemical, Rattus norvegicus

IC50: 3 to 6 µM
SMILES: CCOC(=O)[C@H]1O[C@@H]1C(=O)N[C@@H](CC(C)C)C(=O)NCCC(C)C [E64d, 2S,3S-trans-epoxysuccinyl-L-leucylamido-3-methylbutane ethyl ester]
